Source: ChEMBL document CHEMBL1201862, “PubChem BioAssay data set” (2004)
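Method: 48-hour compound exposure of cells in 96-well plates, five concentrations, linear interpolation of endpoints. Here, GI50 denotes the concentration required for 50% inhibition of growth.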 The source made the active and inactive calls. Cut-off read from the data, not from the text of the source: active = GI50 up to about 1.1 µM and inactive = higher. Starred links: 1 amine or outer side, 2 acyl side, 3 side chain; linkers in the order of their positions; H or OH if unused. Non-standard residues stand in square brackets, D forms with d. Residues, ends and D or L forms follow the SMILES beside them. *: point of attachment. X47 = CCC(=O)CC1CC(C)CC(C(=O)[*:2])N1[*:1]; X46 = CCCCCCCCC(C)C(=O)*; Aib = CC(C)(N)C(=O)O; X48 = CC(CN(C)CCO)N*

Tests used:
Assay in all cases: growth of human tumour cells (NCI), 48 h
BT-549 = tested on: BT-549
MCF7 = tested on: MCF7
MDA-N = tested on: MDA-N
T47D = tested on: T47D
DMS-114 = tested on: DMS-114
DMS-273 = tested on: DMS-273
HOP-18 = tested on: HOP-18
LXFL 529 = tested on: LXFL 529
RXF 631 = tested on: RXF 631

Row | SMILES | GI50 (BT-549) | GI50 (MCF7) | GI50 (MDA-N) | GI50 (T47D) | GI50 (DMS-114) | GI50 (DMS-273) | GI50 (HOP-18) | GI50 (LXFL 529) | GI50 (RXF 631)
1 | COc1ccc(/C=C/c2cc(O)cc(OC3OC(CO)C(O)C(O)C3O)c2)cc1O (centres undefined) | > 100 µM (inactive) | > 100 µM (inactive) | > 100 µM (inactive) | > 100 µM (inactive) | – | – | – | – | –
2 | Cc1ccccc1NC(=O)c1nc(S)nc(N)c1-c1ccccc1C | – | – | – | – | > 100 µM (inactive) | > 100 µM (inactive) | > 100 µM (inactive) | > 100 µM (inactive) | –
3 | O=[N+]([O-])c1ccc(C(Cl)C(Cl)c2ccc(C(Cl)C(Cl)c3ccc([N+](=O)[O-])cc3[N+](=O)[O-])cc2)c([N+](=O)[O-])c1 (centres undefined) | – | – | – | – | 1.42 µM (inactive) | 1.47 µM (inactive) | – | 0.92 µM (active) | 1.57 µM (inactive)
4 | COc1cc(C(=C2SCCS2)c2nccc3cc(OC)c(OC)cc23)c([N+](=O)[O-])cc1OC | – | – | – | – | 41.6 µM (inactive) | 34.4 µM (inactive) | > 100 µM (inactive) | 18.5 µM (inactive) | –
5 | COc1cc2c(c(OC)c1OC)-c1ccc(SC)c(=O)cc1C(CC(=O)Oc1ccccc1F)C2 (centres undefined) | – | – | – | – | 0.0152 µM (active) | 0.00991 µM (active) | – | 0.0266 µM (active) | –
6 | N#CC(C(=O)O)C(c1c(Cl)cccc1Cl)C(C#N)C(=O)O (centres undefined) | > 100 µM (inactive) | > 100 µM (inactive) | > 100 µM (inactive) | > 100 µM (inactive) | – | – | – | – | –
7 | C[n+]1c2ccccc2c(NCC(=O)O)c2ccccc21 | – | – | – | – | > 100 µM (inactive) | > 100 µM (inactive) | > 100 µM (inactive) | > 100 µM (inactive) | –
8 | CC(=O)/C(=C/NC(=S)Nc1ccc(Cl)c(Cl)c1)C(=O)Nc1ccccc1C | 25.5 µM (inactive) | 26.9 µM (inactive) | 25.3 µM (inactive) | 4.65 µM (inactive) | – | – | – | – | –
9 | CCCNC(=O)NNC(=O)c1c[nH]c2nc(C)ccc2c1=O | > 100 µM (inactive) | > 100 µM (inactive) | > 100 µM (inactive) | > 100 µM (inactive) | – | – | – | – | –
10 | N#CC[C@@H](O)COc1ccccc1 | > 100 µM (inactive) | > 100 µM (inactive) | > 100 µM (inactive) | > 100 µM (inactive) | – | – | – | – | –
11 | O=C(Cc1nc2ccccc2s1)C(=O)Nc1cccc(C(F)(F)F)c1 | – | – | – | – | > 100 µM (inactive) | > 100 µM (inactive) | > 100 µM (inactive) | > 100 µM (inactive) | –
12 | O=C(CC1C(=O)Nc2ccccc2[S+]1[O-])Nc1ccccc1 (centres undefined) | – | – | – | – | > 100 µM (inactive) | > 100 µM (inactive) | > 100 µM (inactive) | > 100 µM (inactive) | > 100 µM (inactive)
13 | C=C1c2nc3ccccc3n2C=C(c2ccc(OC)cc2)N1c1ccccc1 | 6.64 µM (inactive) | 4.76 µM (inactive) | 1.43 µM (inactive) | 6.4 µM (inactive) | – | – | – | – | –
14 | O=C1N=CN=C2C=CC(Cl)=C(I)C12 (centres undefined) | – | – | – | – | 84.7 µM (inactive) | 73.8 µM (inactive) | – | > 100 µM (inactive) | –
15 | NC(=S)NNC(=O)CCC(=O)Nc1ccc(Cl)cc1Cl | – | – | – | – | 41.7 µM (inactive) | 38.7 µM (inactive) | – | 26.1 µM (inactive) | > 100 µM (inactive)
16 | COC(=O)CCC(NC(=S)N/N=C(\C)c1nccs1)C(=O)OC (centres undefined) | – | – | – | – | 22.6 µM (inactive) | – | 21.2 µM (inactive) | 60.4 µM (inactive) | 58.2 µM (inactive)
17 | COc1ccc(N2C(=O)C(Cl)C2c2cc3cc(Br)ccc3nc2Cl)cc1 (centres undefined) | 4.46 µM (inactive) | 4.82 µM (inactive) | 5.31 µM (inactive) | 15.1 µM (inactive) | – | – | – | – | –
18 | CCCCCCCCCCCCOCCCOP(=O)([O-])OCC[N+](C)(C)C | 9.04 µM (inactive) | 45.2 µM (inactive) | 13 µM (inactive) | 3.64 µM (inactive) | – | 12.9 µM (inactive) | 32.7 µM (inactive) | – | –
19 | COC(=O)C1=Cc2c(OC)cc(OC)c(OC)c2[C@H](c2cc(OC)c(OC)cc2OC)C1C(=O)OC (some centres undefined) | – | – | – | – | > 100 µM (inactive) | 42.7 µM (inactive) | – | > 100 µM (inactive) | > 100 µM (inactive)
20 | O=[N+]([O-])C1C2C=CC(C2)[C@H]1c1ccc(Cl)cc1Cl (some centres undefined) | – | – | – | – | – | 46.5 µM (inactive) | – | 39.4 µM (inactive) | –
21 | CC1=CC2(C)C=C[C@@H]1C(=O)[C@@]1(C)CC[C@@](O)(C(C)C)[C@H]1CC2 | 33.8 µM (inactive) | 28.4 µM (inactive) | 21.8 µM (inactive) | 25.8 µM (inactive) | – | – | – | – | –
22 | COc1cc(CN[C@H]2CCc3cc(OC)c(OC)c(OC)c3-c3ccc(SC)c(=O)cc32)cc(OC)c1 | – | – | – | – | 0.0222 µM (active) | 0.0341 µM (active) | – | 0.0494 µM (active) | < 0.01 µM (active)
23 | CCCCCCCCC(C)C(=O)N1CCCC1C(=O)N1C(CC(=O)CC)CC(C)CC1C(=O)NC(C)C(=O)NC(C)(C)C(=O)NC(C)(C)C(=O)NC(C(=O)NC(C)C(=O)NC(C)(C)C(=O)NC(C)(C)C(=O)NC(C)CN(C)CCO)C(C)CC (centres undefined) (X46-P[X47]A[Aib][Aib]IA[Aib][Aib]-X48; configuration not given here) | 1.57 µM (inactive) | < 0.01 µM (active) | 1.17 µM (inactive) | < 0.01 µM (active) | – | – | – | – | –
24 | CC(C)[C@H](CCl)NC(=O)c1cccc(C(=O)N[C@H](CCl)C(C)C)n1 (stereo in doubt) | – | – | – | – | > 100 µM (inactive) | > 100 µM (inactive) | – | > 100 µM (inactive) | > 100 µM (inactive)
25 | NC(=O)c1cc([N+](=O)[O-])cc([N+](=O)[O-])c1 [NITROMIDE] | – | – | – | – | 38.5 µM (inactive) | > 100 µM (inactive) | – | > 100 µM (inactive) | > 100 µM (inactive)
